Values of other authors in patent EP0324210A1 (UOP, priority 1988, dated 1989).

Conditions: aqueous solution, 25°C

Question: For `O=C(O)CC(O)(CC(=O)O)C(=O)O` [citric acid], which “acid dissociation constant pKa₃” value is on record?
Answer: 5.40
